Reference: patent US6974867B2, “Compositions and methods for treating neoplastic disease using chemotherapy and radiation sensitizers” (Chiron Corporation, priority 2000, dated 2005)

Tests used:
[1] = tested on: KIAA0175 mRNA; test: Northern analysis of KIAA0175 mRNA after anti-sense oligonucleotide transfection; format: cell-based, human; conditions: HT1080 cells; for level of KIAA0175 mRNA expression: 100 nM oligonucleotide, Northern analysis; for KIAA0175 mRNA expression over time: 24 to 72 hours after oligonucleotide administration
Description: HT 1080 cells express endogenous KIAA0175. These cells were transfected with either the FITC (negative control) or AKT1 (positive control) oligonucleotides), 1182, or 545 oligonucleotides. Briefly, 100 nM of the respective anti-sense oligonucleotide was mixed with lipitoid 1 transfection reagent (Huang et al., Chemistry and Biology 5(6):346-354 (1998)) in a 1:3 volume to volume ratio in OPTI-MEM (GibcoBRL). The mixture was added to the HT1080 cells in complete medium (EMEM, 10% heat inactivated fetal bovine serum (FBS), 2 mM L-Glutamine, 100 U/ml Penicillin, and […] Streptomycin) and the cells were incubated at 37° C. for ^˜4-5 hours in the presence of the anti-sense oligonucleotides before changing to fresh complete medium. Total RNA was extracted at day 1 or 24, 48, or 72 hours following transfection and mRNA levels of KIAA0175 were detected by Northern analysis. 20 μg of total RNA were subjected to electrophoresis on a denaturing agarose gel. RNA was transferred to nitrocellulose and KIAA0175 mRNA was detected by probing with a ^32P-labeled, 0.7 kb KIAA0175 cDNA fragment. To control for equal loading of individual lanes, the blot was stripped of the KIAA0175 probe and re-probed with a ^32P-labeled G3PDH cDNA probe obtained from Clontech.

[2] = tested on: HCT116 cells; test: Colony (Crystal Violet) viability assay, sensitization to γ-irradiation and hydroxyurea; format: cell-based; conditions: 11 days of culture, compared to RC-treated cells
Description: γ-irradiation treatment was performed as follows: On day one, HCT116 cells were transfected with either the KIAA0175 anti-sense molecule No. 545 (545) or with the 545 reverse control molecule (RC) and plated onto tissue-culture plates. On day three, one plate each of 545 and RC transfected cells were treated with γ-irradiation (2, 4 or 8 Gy) and cultured an additional 2 hours. The γ-irradiation treated cells as well as untreated control HCT116 cells were trypsinized, counted and seeded in triplicate onto 6-well tissue culture plates to a density of 1000 cells per well. After 11 days of culture, the cells were assayed for viability by staining with Crystal Violet. Total numbers of cell colonies were then counted.
Hydroxyurea treatment was performed as follows: On day one, HCT116 cells were transfected with either the KIAA0175 anti-sense molecule No. 545 (545) or with the 545 reverse control molecule (RC) and plated onto tissue-culture plates. The following day (day two), one plate each of 545 and RC transfected cells were treated with hydroxyurea (1 mM final concentration) and cultured an additional 24 hours. On day three, the hydroxyurea treated cells as well as untreated control HCT116 cells were trypsinized, counted and seeded in triplicate onto 6-well tissue culture plates to a density of 1000 cells per well. […] Total numbers of cell colonies were then counted.

[3] = tested on: Normal Breast Epithelial Cell Line 184B5; test: LDH cytotoxicity assay, normal breast epithelial cell line; format: cell-based
Description: (§1) The effect of KIAA0175 anti-sense molecules on cell sensitivity to chemotherapeutic drugs was tested on several cell lines using the lactate dehydrogenase (LDH) cytotoxicity assay essentially as follows:
(§2) Day 1: Cells were seeded in 4 separate 96 well plates, typically 5000 cells/well and incubated at 37° C. and 5% CO2.
(§3) Day 2: Cells were transfected with the KIA175-1182 and KIA175-545 anti-sense oligonucleotides (SEQ ID NOs:5 and 1, respectively) as well as the reverse complement controls, RC1182 and RC545 (SEQ ID NOs:6 and 2, respectively) essentially as described in Example 4, with and without drug. One plate (day 0) was left untransfected as a seeding control.
(§4) The transfection was carried out using a lipid vehicle for delivery as described in WO 01/16306, hereby incorporated in its entirety. Briefly, the transfection used agents known as “lipitoids” and “cholesteroids”, described, for example, in PCT publications WO 01/16306, WO 98/06437 and WO 99/08711, based on U.S. Ser. No. 60/023,867, 60/054,743, and 09/132,808, which are also hereby incorporated by reference. These lipid-cationic peptoid conjugates are shown in these references to be effective reagents for the delivery of plasmid DNA to cells in vitro. Any of the carriers described in the above-referenced applications are suitable for use in transfection of the oligonucleotides described herein.
(§5) Depending on the cell type, different lipid vehicles were used for different lengths of time for transfection. […] The transfection was carried out in complete medium and the final anti-sense oligonucleotide concentration was 300 nM per well. In the wells with drug, the drug was added to the culture at the beginning of the transfection.
(§6) Starting on Day 3: Cells were recovered, 1 plate/day and release of LDH into the supernatant was measured using a kit from Roche according to manufacturer's instructions (Roche Diagnostics, Basel, Switzerland) (data labeled as day 1, 2, 3).
(§7) For each sample, the data are expressed as a ratio of the level of LDH in wells containing cells transfected with anti-sense (AS) over the level of LDH in wells containing cells transfected with the reverse complement controls (RC) (ie:AS/RC). Thus, cells that become sensitized to drug will die and release LDH into the supernatant. An increase in the ratio signifies increased cell death and thus, higher levels of LDH in the media. A ratio higher than 1.5 signifies an effect of the anti-sense over the reverse complement control.

[4] = tested on: Breast Cancer Cell Line MDA-MB-231; test: LDH cytotoxicity assay, breast cancer cell line; format: cell-based
Description: as §1, §2, §3, §4, §5, §6, §7

[5] = tested on: KIAA0175; test: KIAA0175 protein levels after exposure of cells to hydroxyurea (Western); conditions: recombinant HA-fusion protein or endogenously expressed
[6] = tested on: p53; test: Western analysis of p53 after γ-irradiation of transfected HT1080 cells; format: cell-based, human; conditions: 10 Gy γ-irradiation 24 hours after transfection
Description: HT1080 cells expressing endogenous KIAA0175 were transfected with the KIAA0175 anti-sense oligonucleotide (1182) and the corresponding reverse control oligonucleotide (RC1182). After culture for 24-hours, the transfected cells were treated with 10 Gy of γ-irradiation. At various times after irradiation, cells were harvested and lysates prepared and subjected to SDS-PAGE. p53, Erk2, and p21 proteins were detected by Western analysis.

[7] = tested on: HT1080 cells; test: Cell cycle arrest upon γ-irradiation in transfected HT1080 cells; format: cell-based, human
Description: Because both p53 and p21 are involved in the G1 to S phase cell cycle transition, the following experiments were performed in order to assess the effect of KIAA0175 anti-sense molecules on cell cycle regulation.
Table 1 discloses the percentage of HT1080 cells in each stage of the cell cycle at various times following exposure to γ-irradiation. By 24 hours, cells were arrested in both the G1 and G2 phases as evidenced by the elevated percentage of cells in G0/G1 and G2/M phases as compared to the diminished percentage of cells in the S phase.
Table 2 discloses the effect of KIAA0175 anti-sense molecules on γ-irradiation induced cell-cycle arrest. In cells transfected with anti-sense molecules, there was a reduction in the accumulation of cells in the G1 phase and a minimized reduction in the number of cells in the S phase as compared to cells transfected with a “reverse-control” anti-sense molecule as control.

[8] = MDA-MB-231 metastatic breast cancer cells

## AKT: positive control oligonucleotide 5′-CCATAGTGAGGTTGCATCTGGTGCC-3′ (listed as DNA, chemistry not given here) [reference compound]
[1]
  level of KIAA0175 mRNA expression: ineffective in reducing KIAA0175 mRNA expression

## FITC: negative control oligonucleotide 5′-TCTGCTGCTGTCGACAACGAGTGTC-3′ (FITC label, position not given here) [reference compound]
[1]
  level of KIAA0175 mRNA expression: ineffective in reducing KIAA0175 mRNA expression
  KIAA0175 mRNA expression over time: no effect

## KIA175-736: KIAA0175 anti-sense oligonucleotide 5′-TGCCCATGCTCCAAACATCTGCCTC-3′ (listed as DNA, chemistry not given here)
[1]
  level of KIAA0175 mRNA expression: effective in reducing the level of KIAA0175 mRNA expression

## KIA175-545: KIAA0175 anti-sense oligonucleotide 5′-GAGGTCCCTGTGAGCATAGCCCTGG-3′ (listed as DNA, chemistry not given here)
[1]
  level of KIAA0175 mRNA expression: effective in reducing the level of KIAA0175 mRNA expression
  KIAA0175 mRNA expression over time: increased gradually
[2]; hydroxyurea 1 mM 24 hours
  sensitivity to hydroxyurea (number of viable colonies): increased the sensitivity of HCT116 cells to hydroxyurea
[2]; γ-irradiation 2, 4 or 8 Gy
  sensitivity to γ-irradiation (number of viable colonies): increased the sensitivity of HCT116 cells to γ-irradiation
[3]; 184B5, Day 0 (untransfected seeding control plate), 300 nM oligonucleotide
  LDH ratio AS/RC: 0.0000
[3]; 184B5, Day 1, 300 nM oligonucleotide, ratio higher than 1.5 signifies an effect
  LDH ratio AS/RC: 1.1152
[3]; 184B5, Day 2, 300 nM oligonucleotide, ratio higher than 1.5 signifies an effect
  LDH ratio AS/RC: 1.1258
[3]; 184B5, Day 3, 300 nM oligonucleotide, ratio higher than 1.5 signifies an effect
  LDH ratio AS/RC: 1.2934
[3]; 184B5 normal breast epithelial cell line
  effect on cell death (LDH): neither KIA175-1182 nor KIA175-545 has an effect
[4]; MDA-MB-231, Day 0 (untransfected seeding control plate), 300 nM oligonucleotide
  LDH ratio AS/RC: 0.84
[4]; MDA-MB-231, Day 1, 300 nM oligonucleotide, ratio higher than 1.5 signifies an effect
  LDH ratio AS/RC: 1.05
[4]; MDA-MB-231, Day 2, 300 nM oligonucleotide, ratio higher than 1.5 signifies an effect
  LDH ratio AS/RC: 1.37
[4]; MDA-MB-231, Day 3, 300 nM oligonucleotide, ratio higher than 1.5 signifies an effect
  LDH ratio AS/RC: 1.62
[4]; [8]
  sensitization to the effects of Campthesin (CPT): sensitizes
  sensitization to the effects of Cisplatin: sensitizes
  sensitization to the effects of Doxorubicin (Doxo): did not appear to sensitize

## RC736: reverse control oligonucleotide 5′-CTCCGTCTACAAACCTCGTACCCGT-3′ (listed as DNA, chemistry not given here) [reference compound]
[1]
  level of KIAA0175 mRNA expression: ineffective in reducing KIAA0175 mRNA expression

## NC(=O)NO [hydroxyurea]
[5]
  KIAA0175 protein levels: caused an increase in KIAA0175 protein levels

## RC1182: reverse control oligonucleotide 5′-AGGACACCTGTTCGGTCACGATGGG-3′ (listed as DNA, chemistry not given here) [reference compound]
[1]
  level of KIAA0175 mRNA expression: ineffective in reducing KIAA0175 mRNA expression
[6]
  γ-irradiation induced increase in p53 protein level: increase in p53 protein level observed
[7]; + γ-irradiation
  percentage of cells in G0-G1: 52.5%
  percentage of cells in G2-M: 32.6%
  percentage of cells in S: 14.9%
[7]; − γ-irradiation
  percentage of cells in G0-G1: 47.6%
  percentage of cells in G2-M: 19.4%
  percentage of cells in S: 33%
